These results are taken from PubChem BioAssay (NCI).

What all share (experiment): NCI-60 cell line screen, 48 h
Assay [1] relates to MDA-MB-435.
For assay [2], the system named is MDA-MB-231 breast.
The test system of assay [3] is OVCAR-4 ovarian.
Assay [4] relates to DU-145 prostate.
Assay [5] has as its system HOP-92 NSCLC.
For assay [6], the system named is HL-60(TB) leukemia.
The subject of assay [7] is NCI-H226 lung.
The subject of assay [8] is UACC-257 melanoma.
In assay [9] the test system is M14 melanoma.
For assay [10], the system named is SK-MEL-5 melanoma.

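How tested: cells in 96-well plates exposed to compound for 48 hours at five concentrations. At the TGI there is no net growth.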

For `C=C1c2nc3ccccc3n2C=C(c2ccc(OC)cc2)N1c1ccc(OC)cc1`, the TGI in assay [1] was > 100 µM; in assay [2], 75.9 µM; in [3], > 100 µM; in assay [4] it was > 100 µM; in assay [5] it was 85.5 µM; in [6], > 100 µM. For the same molecule, the TGI in assay [7] is 43.1 µM; in assay [8], > 100 µM; in assay [9], > 100 µM; in assay [10] it was 35.1 µM.
Regarding `CC(C)(CN1CCCCC1)C(/C=C/c1ccc(Cl)cc1)=N\NC(=O)N/N=C(/C=C/c1ccc(Cl)cc1)C(C)(C)CN1CCCCC1`, the TGI was 13.5 µM in assay [1]; 7.21 µM in assay [2]; 15 µM in [3]; 18 µM in assay [4]; 8.72 µM in assay [5]; > 19.9 µM in assay [6]. Also, the TGI in assay [7] is 16.4 µM; in [8], 17.1 µM; in [9], 11.1 µM; in assay [10] it was 11.2 µM.
Take `O=c1c(F)cn(Cc2c(Cl)cccc2Cl)c(=O)n1Cc1c(Cl)cccc1Cl`: the TGI in assay [1] is > 31.6 µM; in [2], > 31.6 µM; in assay [3] it was > 31.6 µM; in [4], > 100 µM; in [5] it was > 31.6 µM; in [6] it was > 31.6 µM. Moreover, the TGI is > 100 µM in [7], > 31.6 µM in assay [8], > 31.6 µM in [9] and > 31.6 µM in assay [10].
Consider `COc1ccc(C2=CC(C(C)=C(C(N)=O)C(N)=O)C=C(c3ccc(Br)cc3)C2)c(OC)c1` (stereo not given), for which the TGI in assay [1], in assay [2], in assay [3], in [4], in [5] and in assay [6] was > 100 µM in each case. Moreover, the TGI in [7], in [8], in assay [9] and in [10] was > 100 µM throughout.
As for `COCOC1/C=C/CCCCC(=O)C(C)C#CC1` (stereo not given), the TGI in assay [1] is 18.3 µM; in [2], 15.6 µM; in [3], 24.4 µM; in assay [4], 25.4 µM; in [5], 8.46 µM; in assay [6], 4.33 µM. In addition, the TGI in [7] came to 35.3 µM; in assay [8], 19.5 µM; in assay [9], 14.5 µM; in assay [10] it was 15.3 µM.
For the molecule `N=c1oc2ccccc2cc1C(=O)NC12CC3CC(CC(C3)C1)C2`, the TGI in assay [1] was > 83.6 µM; in assay [2], 47.7 µM; in assay [3], > 86.8 µM; in assay [4], > 84.3 µM; in assay [5], > 100 µM; in assay [6], 30.7 µM. Moreover, the TGI in [7] is > 90.3 µM; in [8], 70.9 µM; in assay [9] it was > 100 µM; in assay [10], 69.9 µM.
In the case of `CC1=NN(c2nc(N)nc(COc3ccc(N)cc3)n2)C(C)(C)C1`, the TGI in assay [1], in [2], in [3], in assay [4], in assay [5] and in assay [6] was > 100 µM each time. In addition, the TGI in assay [7], in assay [8], in assay [9] and in assay [10] was > 100 µM in each case.
As to `CC1=C/C(=N\NC(N)=S)C(C(O)(C(F)(F)F)C(F)(F)F)C(C)(C)C1` (stereo not given), the TGI in assay [1], in assay [2], in assay [3], in assay [4], in assay [5] and in assay [6] was > 10 µM in each case. Further, the TGI in assay [7], in assay [8], in assay [9] and in assay [10] was > 10 µM throughout.
Regarding `CC(C)=C[C@H]1C[C@H](C)[C@H]2CC[C@H](C)c3c2c1c(C)c1ncoc31`, the TGI came out at 38.9 µM in assay [1]; 39.3 µM in assay [2]; 34.1 µM in [3]; 33.9 µM in assay [4]; 31.4 µM in [5]; 44.8 µM in assay [6]. Besides, the TGI in assay [7] was found to be 33.2 µM; in assay [8], 33.5 µM; in assay [9] it was 29.3 µM; in assay [10] it was 28.6 µM.
Take `CCOC(=O)CCC(NC(=O)C(N)Cc1ccc(N(CCCl)CCCl)cc1)C(=O)OCC` (stereo not given): the TGI in assay [1] stood at 3.75 µM; in [2], 3.94 µM; in assay [3], 1.38 µM; in assay [4], 2.34 µM; in assay [5], 1.59 µM; in assay [6], 0.586 µM. Moreover, the TGI in [7] was found to be 20.7 µM; in assay [8], 5.2 µM; in [9] it was 1.39 µM; in assay [10] it was 2.93 µM.
Turning to `O=C1C(Br)=C(Br)C(=O)c2ccc(=O)ccc21`, the TGI in assay [1] was 33.3 µM; in [2], 35.9 µM; in [3], 32.7 µM; in assay [4] it was > 100 µM; in assay [5], 34.8 µM; in [6] it was 13.7 µM. For the same molecule, the TGI in assay [7] is > 100 µM; in assay [8] it was 58.3 µM; in assay [9], 32.7 µM; in assay [10] it was 44.4 µM.
